Reference: paper PMC6995562, “Evaluating Iso-Mukaadial Acetate and Ursolic Acid Acetate as Plasmodium falciparum Hypoxanthine-Guanine-Xanthine Phosphoribosyltransferase Inhibitors” (Biomolecules, 2019)
Read-outs that look alike come from different tables or passages of the source.

Target: T1, Plasmodium falciparum hypoxanthine-guanine-xanthine phosphoribosyltransferase (PfHGXPRT) (Plasmodium falciparum, UniProt Q8IJS1)
T1 construct: gene PF3D7_1012400; recombinant, N-terminal His6 tag (pET28-a), expressed in E. coli BL21 (DE3)
Test: microscale thermophoresis (MST) with labelled His-tagged protein; UV-Vis spectral change
Format: binding

T1 sequence (Q8IJS1 entry or part of it): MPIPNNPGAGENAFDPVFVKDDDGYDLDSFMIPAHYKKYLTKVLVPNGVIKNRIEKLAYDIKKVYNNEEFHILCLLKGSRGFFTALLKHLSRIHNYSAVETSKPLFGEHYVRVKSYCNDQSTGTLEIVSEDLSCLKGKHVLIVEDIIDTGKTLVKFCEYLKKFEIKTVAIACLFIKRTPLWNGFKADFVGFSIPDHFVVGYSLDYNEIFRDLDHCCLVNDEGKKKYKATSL

Compound | Kd | Kd (read-out: Kd)
CC(=O)O[C@H]1CC[C@]2(C)[C@H]3CC=C4[C@@H]5[C@@H](C)[C@H](C)CC[C@]5(C(=O)O)CC[C@@]4(C)[C@]3(C)CC[C@H]2C1(C)C [UAA, ursolic acid acetate] | 2840 nM | 
iso-mukaadial acetate [IMA] |  | 83.3 nM
